# Assay results as given in US5990147A, “H3 receptor ligands of the phenyl-alkyl-imidazoles type” (Schering Corporation, priority 1998, dated 1999).
# Biological target: T1, H3 receptors (Cavia porcellus, UniProt Q9JI35)
# T1 construct: The source of the H3 receptors in this experiment was guinea pig brain; from tissue; host or cells: guinea pig brain membranes
# Test: H3-Receptor Binding Assay (guinea pig brain membranes, [3H]R-a-methylhistamine or [3H]Na-methylhistamine)
# Settings: not given
# Protocol: The source of the H3 receptors in this experiment was guinea pig brain. The animals weighed 400-600 g. The brain tissue was homogenized using a Polytron in a solution of 50 mM Tris, pH 7.5. The final concentration of tissue in the homogenization buffer was 10% w/v. The homogenates were centrifuged at 1,000×g for 10 min. in order to remove clumps of tissue and debris. The resulting supernatants were then centrifuged at 50,000×g for 20 min. in order to sediment the membranes, which were next washed three times in homogenization buffer (50,000×g for 20 min. each). The membranes were frozen and stored at -70° C. until needed.
# All compounds to be tested were dissolved in DMSO and then diluted into the binding buffer (50 mM Tris, pH 7.5) such that the final concentration was 2 μg/ml with 0.1% DMSO. Membranes were then added (400 μg of protein) to the reaction tubes. The reaction was started by the addition of 3 nM [^3 H]R-a-methylhistamine (8.8 Ci/mmol) or 3 nM [^3 H]N^a -methylhistamine (80 Ci/mmol) and continued under incubation at 30° C. for 30 min. Bound ligand was separated from unbound ligand by filtration, and the amount of radioactive ligand bound to the membranes was quantitated by liquid scintillation spectrometry. All incubations were performed in duplicate and the standard error was always less than 10%. […] The results are given in the table below for the HCl salt of the indicated compound.
# T1 sequence (Q9JI35 whole entry): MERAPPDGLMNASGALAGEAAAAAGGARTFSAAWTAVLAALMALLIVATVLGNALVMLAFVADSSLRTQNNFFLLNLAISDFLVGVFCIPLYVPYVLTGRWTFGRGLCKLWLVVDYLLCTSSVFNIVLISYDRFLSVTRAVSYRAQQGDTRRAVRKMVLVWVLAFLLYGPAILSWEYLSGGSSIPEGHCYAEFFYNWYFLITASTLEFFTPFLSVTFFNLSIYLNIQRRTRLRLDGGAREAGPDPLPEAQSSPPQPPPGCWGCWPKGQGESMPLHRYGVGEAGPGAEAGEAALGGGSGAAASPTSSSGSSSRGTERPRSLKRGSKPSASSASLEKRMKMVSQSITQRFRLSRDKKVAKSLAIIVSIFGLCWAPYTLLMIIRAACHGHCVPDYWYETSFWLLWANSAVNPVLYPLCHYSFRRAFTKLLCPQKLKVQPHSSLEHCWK
row,Structure (SMILES),Ki [nM]
1,O=C(Nc1cccc(C(F)(F)F)c1)OCc1ccc(Cc2c[nH]cn2)cc1 [Compound 12],21
2,O=C(CCc1ccc(Cc2c[nH]cn2)cc1)Nc1ccccc1 [Compound 21],2
3,O=C(NCc1ccc(Cc2c[nH]cn2)cc1)Nc1cc(Cl)cc(Cl)c1 [Compound 8],12
4,Cc1cc(C)cc(NC(=O)OCc2ccc(Cc3c[nH]cn3)cc2)c1 [Compound 14],17
5,O=C(CCc1ccc(Cc2c[nH]cn2)cc1)NCCc1ccc(Cl)cc1 [Compound 24],5
6,O=C(Nc1cccc(F)c1)OCc1ccc(Cc2c[nH]cn2)cc1 [Compound 19],5
7,N#Cc1cccc(NC(=O)OCc2ccc(Cc3c[nH]cn3)cc2)c1 [Compound 15],7
8,COc1cccc(NC(=O)OCc2ccc(Cc3c[nH]cn3)cc2)c1 [Compound 17],13
9,O=C(CCc1ccc(Cc2c[nH]cn2)cc1)Nc1cccc(Cl)c1 [Compound 22],1

# Same assay, conditions: HCl salt of the indicated compound; guinea pig brain membranes; 3 nM [3H]R-a-methylhistamine or 3 nM [3H]Na-methylhistamine, pH 7.5, 30° C., 30 min; read-out: Ki
row,Structure (SMILES),Ki [nM]
1,O=C(NCc1ccc(Cc2c[nH]cn2)cc1)Nc1cccc(Cl)c1 [Compound 9],6
2,O=C(NCc1ccc(Cc2c[nH]cn2)cc1)Nc1cc(C(F)(F)F)cc(C(F)(F)F)c1 [Compound 2],22
3,O=C(Nc1cc(C(F)(F)F)cc(C(F)(F)F)c1)OCc1ccc(Cc2c[nH]cn2)cc1 [Compound 18],23
4,O=C(NCc1ccc(Cc2c[nH]cn2)cc1)Nc1ccccc1Cl [Compound 4],32
5,O=C(NCc1ccc(Cc2c[nH]cn2)cc1)Nc1cc(Cl)cc(Cl)c1 [Compound 8],4
6,O=C(NCc1ccc(Cc2c[nH]cn2)cc1)Nc1cccc(C(F)(F)F)c1 [Compound 6],16
7,N#Cc1cccc(NC(=O)NCc2ccc(Cc3c[nH]cn3)cc2)c1 [Compound 7],5
8,O=C(NCc1ccc(Cc2c[nH]cn2)cc1)Nc1ccc(Cl)c(Cl)c1 [Compound 10],7
9,COc1cccc(NC(=O)NCc2ccc(Cc3c[nH]cn3)cc2)c1 [Compound 1],18
10,O=C(Nc1cc(Cl)cc(Cl)c1)OCc1ccc(Cc2c[nH]cn2)cc1 [Compound 20],5
11,Cc1cc(C)cc(NC(=O)NCc2ccc(Cc3c[nH]cn3)cc2)c1 [Compound 3],9
12,O=C(Nc1ccc(Cl)c(Cl)c1)OCc1ccc(Cc2c[nH]cn2)cc1 [Compound 13],18

# Test system: short-term memory and reversal learning
# Test: not given
# Settings: rat; Clapham et al., Brit. J. Pharm. Suppl. 1993; cited from earlier work
row,Structure (SMILES),short-term memory and reversal learning
1,S=C(NC1CCCCC1)N1CCC(c2cnc[nH]2)CC1 [thioperamide],can improve short-term memory and reversal learning in the rat

# Test system: electrically induced convulsions
# Test: not given
# Settings: mice; Yokoyama et al., Eur. J. Pharmacol. 1993; cited from earlier work
Structure (SMILES),duration of each phase of convulsion,electroconvulsive threshold
S=C(NC1CCCCC1)N1CCC(c2cnc[nH]2)CC1 [thioperamide],decreased the duration of each phase of convulsion,raised the electroconvulsive threshold
